Patent publication US6300501A, “Histidine-(N-benzyl glycinamide) inhibitors of protein farnesyl transferase” (Warner-Lambert Company, priority 1998, dated 2001)
Like-named read-outs stand apart in the source and are kept apart here.

Experiments:
[1] = biological target: T1, SF9 affinity purified rat farnesyl protein transferase (Rattus norvegicus, UniProt Q02293+Q04631); assay: PFT inhibitory activity (radiolabeled farnesyl pyrophosphate, streptavidin bead assay); format: biochemical
T1 construct: made in house; host or cells: Sf9 insect cells (baculovirus system inferred from b7)
Method: The protein:farnesyl transferase (PFT) or farnesyl protein transferase (FPT) inhibitory activity of compounds of the present invention were assayed in HEPES buffer (pH 7.4) containing 5 mM potassium phosphate and 20 μM ZnCl2. The solution also contained 5 mM DTT (dithiothreitol), 5 mM MgCl2, and 0.1% PEG 8000. Assays were performed in 96 well plates (Wallec) and employed solutions composed of varying concentrations of a compound of the present invention in 100% DMSO (dimethylsulfoxide). Upon addition of both substrates, radiolabeled farnesyl pyrophosphate ([1^3 H], specific activity 15-30 Ci/mmol, final concentration 134 nM) and (biotinyl)-Ahe-Thr-Lys-Cys-Val-Ile-Met ([3aS[3a alpha, 4 beta, 6a alpha]-hexahydro-2-oxo-1H-thieno[3,4-d]imidazole-5-pentanoic acid]-[7-aminoheptanoic acid]-Thr-Lys-Cys-Val-Ile-Met) (Ahe is 7-aminoheptanoic acid, Thr is threonine, Lys is lysine, Cys is cysteine, Val is valine, Ile is isoleucine and Met is methionine) (final concentration 0.2 μM), the enzyme reaction was started by addition of SF9 affinity purified rat farnesyl protein transferase. After incubation at 30° C. for 30 minutes, the reaction was terminated by diluting the reaction 2.5-fold with a stop buffer containing 1.5 M magnesium acetate, 0.2 M H3 PO4, 0.5% BSA (bovine serum albumin), and strepavidin beads (Amersham) at a concentration of 1.3 mg/mL. After allowing the plate to settle for 30 minutes at room temperature, radioactivity was quantitated on a microBeta counter (Model 1450, Wallec). The assay was also carried out without 5 mM potassium phosphate.

[2] = tested on: ras farnesylation in ras-transformed cells; assay: Gel shift assay; format: cell-based; details: ras-transformed cells, 18-hour incubation; read-out: Gel Shift (μM) MED (minimal effective dose to observe inhibition of ras farnesylation)
Method: Twenty-four hours after planting 2×10^6 ras-transformed cells per treatment condition, the farnesylation inhibitor is added at varying concentrations. Following an 18-hour incubation period, cells are lysed in phosphate-buffered saline containing 1% Triton X-100, 0.5% sodium deoxycholate, and 0.1% SDS (sodium dodecyl sulfate), pH 7.4 in the presence of several protease inhibitors (PMSF (phenylmethylsulfonylfluoride), antipain, leupeptin, pepstatin A, and aprotinin all at 1 μg/mL). Ras protein is immunoprecipitated from the supernatants by the addition of 3 μg v-H-ras Ab-2 (Y13-259 antibody from Oncogene Science). After overnight immunoprecipitation, 30 μL of a 50% protein G-Sepharose slurry (Pharmacia) is added followed by 45-minute incubation. Pellets are resuspended in 2× tris-glycine loading buffer (Novex) containing 5% β-mercaptoethanol and then denatured by 5 minutes boiling prior to electrophoresis on 14% Tris-glycine SDS gels. Using Western transfer techniques, proteins are transferred to nitrocellulose membranes followed by blocking in blocking buffer. Upon overnight incubation with primary antibody (pan-ras Ab-2 from Oncogene Science), an antimouse HRP (horse radish peroxidase) conjugate secondary antibody (Amersham) is employed for detection of the ras protein. Blots are developed using ECL(enhanced chemiluminescence) techniques (Amersham).

[3] = tested on: H61 cells: NIH transformed 3T3 H-ras cells; assay: Clonogenic assay (6 well plates, soft agar); format: cell-based
Method: Clonoaenic Assay (6 well lates)
Sometime previous to setting up an actual test:
1. Make up 1.5% Bacto Agar in Milli-Q water and autoclave.
2. Make up 500 mL 2× DMEM-HG without phenol red by combining the following:
1 bottle DMEM base powder (Sigma D-5030)
Adjust pH to 7.1 with HCL; filter sterilize.
1. Set up makeshift water bath (beaker of water with thermometer, on hot plate) in the hood. Keep water temperature between 37° C. to 43° C.
2. […] 1.5% Bacto Agar for approximately 2 minutes on high, or until completely melted. Then let it cool somewhat before using it. (You can keep it from resolidifying by setting the bottle on the hot plate.) […]
3. Bottom Layer (0.6% agar) Top Layer (0.3% agar)
20% calf serum 20% calf serum
40% Bacto Agar (1.5%) 20% Bacto Agar (1.5%)
Depending on the volume of each layer needed, use either 50 mL conical tubes or 200 mL turnip tubes which can be floated in the "water bath".
4. Add 1 mL of bottom layer agar/medium to each well: deliver 1 mL warm agar/medium to a well; then using the tip of the pipet, spread the agar/medium around to completely cover the bottom. Repeat with next well.
5. Allow the plates to set at room temperature for about 5 minutes until the bottom layer solidifies.
6. Label sterile Falcon 2054 (12×75 mm) tubes and add appropriate volume of drug solutions into them.
7. Aliquot 4 AL of DMSO or drug solution per 1 mL of agar/medium to appropriate tubes; then add the agar/medium/cells to each tube. Always add 1 mL more than will actually be needed. Mix up and down in the pipet (gently); then deliver 1 mL to the center of each well. The upper layer is less viscous, so it will generally spread out over the bottom layer unaided. If necessary, rotate the plane of the plate gently to spread the top layer evenly over the bottom layer.
8. Let plates set for 5 or 10 minutes at room temperature to solidify, then put into 5% CO2, 37° C. incubator.
9. On Day 13, add 0.5 mL of INT (tetrazolium 1 mg/mL in Milli-Q H2 O, filter sterilized) and return plates to incubator.

[4] = HEPES buffer pH 7.4, without 5 mM potassium phosphate, read-out: IC50 (μM) Hepes
[5] = HEPES buffer pH 7.4 containing 5 mM potassium phosphate, read-out: IC50 (μM) 5 mM K3 PO4 -2

T1 sequence (Q02293 whole entry, one chain of several): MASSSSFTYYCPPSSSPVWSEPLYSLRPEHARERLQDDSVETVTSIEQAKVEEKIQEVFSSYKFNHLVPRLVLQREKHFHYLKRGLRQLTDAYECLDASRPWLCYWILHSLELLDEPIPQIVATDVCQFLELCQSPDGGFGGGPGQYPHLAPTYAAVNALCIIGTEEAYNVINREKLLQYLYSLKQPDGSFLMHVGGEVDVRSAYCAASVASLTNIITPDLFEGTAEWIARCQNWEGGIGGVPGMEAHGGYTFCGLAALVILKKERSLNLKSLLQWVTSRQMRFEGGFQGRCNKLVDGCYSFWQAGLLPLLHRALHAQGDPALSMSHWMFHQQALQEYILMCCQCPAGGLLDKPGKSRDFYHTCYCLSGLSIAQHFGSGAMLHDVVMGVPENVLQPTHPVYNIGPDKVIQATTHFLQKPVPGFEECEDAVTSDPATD

Compound | IC50 [1, 4] [µM] | IC50 [1, 5] [µM] | minimal effective concentration [2] [µM] | IC50 ([3]; average obtained by additional tests, read-out: Clonogenic Assay IC50 (μM), number in parentheses) [µM] | IC50 ([3]; colonies counted after Day 13, read-out: Clonogenic Assay IC50) [µM] | IC50 ([3]; 312 h, colonies counted after Day 13, read-out: Clonogenic Assay IC50) [µM]
O=C(CN(Cc1ccc(OCc2ccccc2)cc1)C(=O)[C@H](Cc1c[nH]cn1)NC(=O)OCc1ccccc1)NCCOCc1ccccc1 [Example 1, (S)-N-[(Phenylmethoxy)carbonyl]-L-histidyl-N-[2-(phenylmethoxy)ethyl]-N. sup.2-[[4-(phenylmethoxy)phenyl]-methyl]alycinamide] | 7.7 | 0.26 | 1 | 14.3 | 2.7 | 
CC(CNC(=O)CN(Cc1ccc(OCc2ccccc2)cc1)C(=O)[C@H](Cc1c[nH]cn1)NC(=O)NCc1ccccc1)c1ccccc1 (stereo partly drawn) [Example 26, (S)-N-(4-Benzyloxy-benzyl)-2-(3-benzyl-ureido)-3-(1H-imidazole-4-yl)-N-[(2-phenyl-propylcarbamoyl)-methyl]-propionamide] | 0.15 | 0.009 |  |  |  | 
CC(CNC(=O)CN(Cc1ccc(Br)cc1)C(=O)[C@H](Cc1c[nH]cn1)NC(=O)OCc1ccccc1)c1ccccc1 (stereo partly drawn) [Example 29, (S)-[1-{(4-Bromo-benzyl)-[(2-phenyl-propylcarbamoyl)-methyl]-carbamoyl}-2-(1H-imidazole-4-yl)-ethyl]-carbamic Acid Benzyl Ester] |  |  | 0.1 |  |  | > 1
CC(CNC(=O)CN(Cc1cccc2ccccc12)C(=O)[C@H](Cc1c[nH]cn1)NC(=O)OCc1ccccc1)c1ccccc1 (stereo partly drawn) [Example 37, (S)-(2-(1H-Imidazole-4-yl)-1-{naththalen-1-ylmethyl-[(2-phenyl-propylcarbamoyl)-methyl]-carbamoyl}-ethyl)-carbamic Acid Benzyl Ester] | 0.92 | 0.026 | ≥ 0.2 |  |  | 
CC(C)(CNC(=O)CN(Cc1ccccn1)C(=O)[C@H](Cc1c[nH]cn1)NC(=O)OCc1ccccc1)c1ccccc1 [Example 46, (S)-(2-(1H-Imidazole-4-yl)-1-{[(2-methyl-2-phenyl-propylcarbamoyl)-methyl]-pyridin-2-ylmethyl-carbamoyl}-ethyl)-carbamic Acid Benzyl Ester] | 1.98 | 0.034 | 1 |  |  | 
CC(CNC(=O)CN(Cc1ccc(N(C)C)cc1)C(=O)[C@H](Cc1c[nH]cn1)NC(=O)OCc1ccccc1)c1ccccc1 (stereo partly drawn) [Example 48, (S)-[1-{(4-Dimethylamino-benzyl)-[(2-phenyl-propylcarbamoyl)-methyl]-carbamoyl}-2-(1H-imidazole-4-yl)-ethyl]-carbamic Acid Benzyl Ester] | 0.5 | 0.0029 | 0.05 |  |  | 
CC(C)(CNC(=O)CN(Cc1ccc(OCc2ccccc2)cc1)C(=O)[C@H](Cc1c[nH]cn1)NC(=O)OCc1ccsc1)c1ccccc1 [Example 54, (S)-[1-{(4-Benzyloxy-benzyl)-[(2-methyl-2-henyl-propylcarbamoyl)-methyl]-carbamoyl}-2-(1H-imidazole-4-yl)-ethyl]-carbamic acid thiophen-3-ylmethyl Ester] | 0.2 | 0.0012 | 0.2 |  |  | 
CC(C(=O)NCC(C)(C)c1ccccc1)N(Cc1ccc(Cl)cc1)C(=O)[C@H](Cc1cnc[nH]1)NC(=O)OCc1ccccc1 (stereo partly drawn) [Example 55, (S)-[1-{(4-Chloro-benzyl)-[1-(2-methyl-2-phenyl-propylcarbamoyl)-ethyl]-carbamoyl}-2-(3H-imidazole-4-yl)-ethyl]-carbamic Acid Benzyl Ester] | 0.86 | 0.014 | 0.05 |  |  | 
Cc1ccc(CN(CC(=O)NCC(C)(C)c2ccccc2)C(=O)[C@H](Cc2c[nH]cn2)NC(=O)OCc2ccccc2)cc1 [Example 56, (S)-(2-(1H-Imidazole-4-yl)-1-{(4-methyl-benzyl)-[(2-methyl-2-phenyl-propylcarbamoyl)-methyl]-carbamoyl}-ethyl)-carbamic Acid Benzyl Ester] | 0.32 | 0.012 | 0.05 |  |  | 
COc1ccccc1CN(CC(=O)NCC(C)(C)c1ccccc1)C(=O)[C@H](Cc1c[nH]cn1)NC(=O)OCc1ccccc1 [Example 57, (S)-(2-(1H-Imidazole-4-yl)-1-{(2-methoxy-benzyl)-[(2-methyl-2-phenyl-propylcarbamoyl)-methyl]-carbamoyl}-ethyl)-carbamic Acid Benzyl Ester] | 0.38 | 0.0052 |  |  |  | 
CN(Cc1ccccc1)C(=O)N[C@@H](Cc1c[nH]cn1)C(=O)N(CC(=O)NCC(C)(C)c1ccccc1)Cc1ccc(Cl)cc1 [Example 58, (S)-2-(3-Benzyl-3-methyl-ureido)-N-(4-chloro-benzyl)-3-(1H-imidazole-4-yl)-N-[(2-methyl-2-phenyl-propylcarbamoyl)-methyl]-propionamide] | 0.029 | 0.005 | 0.05 |  |  | 
COc1cccc(CN(CC(=O)NCC(C)(C)c2ccccc2)C(=O)[C@H](Cc2c[nH]cn2)NC(=O)OCc2ccccc2)c1 [Example 59, (S)-(2-(1H-Imidazole-4-yl)-1-{(3-methoxy-benzyl)-[(2-methyl-2-phenyl-propylcarbamoyl)-methyl]-carbamoyl}-ethyl)-carbamic Acid Benzyl Ester] | 0.52 | 0.004 | 0.05 |  |  | 
CC(C)(CNC(=O)CN(Cc1ccccc1OCc1ccncc1)C(=O)[C@H](Cc1c[nH]cn1)NC(=O)OCc1ccccc1)c1ccccc1 [Example 60, (S)-(2-(1H-Imidazole-4-yl)-1-{[(2-methyl-2-phenyl-propylcarbamoyl)-methyl]-[2-(pyridin-4-ylmethoxy)-benzyl]-carbamoyl}-ethyl)-carbamic Acid Benzyl Ester] | 0.14 | 0.016 | 0.05 |  |  | 
CC(C)CN(CC(=O)NCC(C)c1ccccc1)C(=O)[C@H](Cc1c[nH]cn1)NC(=O)OCc1ccccc1 (stereo partly drawn) [Example 62, (S)-(2-(1H-Imidazol-4-yl)-1-{isobutyl-[(2-phenyl-propylcarbamoyl)-methyl]-carbamoyl}-ethyl)-carbamic Acid Benzyl Ester] | 2.6 | 0.029 |  |  |  | 
[1-{Cyclohexylmethyl-[(2-phenyl-propylcarbamoyl)-methyl]-carbamoyl}-2-(3H-imidazole-4-yl)-ethyl]-carbamic Acid Benzyl Ester [Example 61] | 0.66 | 0.018 | 0.01 |  |  | 
